# Source: EP4581948A1, “AEROSOLISABLE MATERIAL FOR USE IN AN ARTICLE” (BT DE Investments Inc., priority 2024, dated 2025)
# Experiment: Solubility study: maximum solubility of terpenes in solvent by stepwise addition and visual inspection
# Assay type: physicochemical
# Conditions: ambient temperature (18 to 22 degrees Celsius); for Max. solubility of terpenes in solvent (% w/w) BA: solvent benzyl alcohol (BA); for Max. solubility of terpenes in solvent (% w/w) PG: solvent propylene glycol (PG); for Max. solubility of terpenes in solvent (% w/w) PG + 8% BA: solvent propylene glycol with 8%w/w benzyl alcohol
# Description: A solubility study was carried out to assess the solubility of a range of terpenes in propylene glycol (PG) and benzyl alcohol (BA), and a mixture of propylene glycol (PG) and 8%w/w benzyl alcohol (BA) (materials were sourced from Sigma).
# In particular, the maximum solubility at ambient temperature was assessed following the stepwise addition of each terpene to the relevant solvent or solvent mixture. Each terpene was added in aliquots to a solvent (PG, BA or a combination of PG and BA, where the BA was present in an amount of 8%w/w of the PG) and stirred at ambient temperature (18 to 22 degrees Celsius) until the terpene had fully solubilized. The next aliquot of terpene was then added.
Compound,Max. solubility of terpenes in solvent (% w/w) BA [% w/w],Max. solubility of terpenes in solvent (% w/w) PG [% w/w],Max. solubility of terpenes in solvent (% w/w) PG + 8% BA [% w/w]
C=CC(C)(CCC=C(C)C)OC(C)=O (stereo not drawn) [Linalyl acetate],34.5,1.4,6.0
CC(C)=CCCC(C)CCO (stereo not drawn) [beta-citronellol],71.2,47.0,70.3
C=C1CC/C=C(\C)CC[C@@H]2[C@@H]1CC2(C)C [beta-caryophyllene],11.0,1.1,2.4
C=C[C@](C)(O)CCC=C(C)C [R- linalool],73.2,72.6,74.3
